Reference: patent US10183058B2, “Method of preventing or reducing the progression of prostate cancer” (Nymox Corporation, priority 2016, dated 2019)
Ends that are not written are not given here.

Tested on: prostate cancer
Experiment: Clinical studies in men with BPH given SEQ ID NO. 66 by intraprostatic injection; incidence of clinically or biopsy detected prostate cancer
Format: in vivo, human (men)
Settings: 2.5 mg intraprostatic injection; for Incidence of cancer (Gleason Grade >= 7): follow-up up to 6.5 years, compared to known expected incidence of 5-6%
Protocol: In a series of clinical studies undertaken between 2009 and 2016 a total of 628 men with benign prostatic hyperplasia (BPH) received SEQ ID NO. 66 (Ile-Asp-Gln-Gln-Val-Leu-Ser-Arg-Ile-Lys-Leu-Glu-Ile-Lys-Arg-Cys-Leu), 2.5 mg given by intraprostatic injection into the transition zone of the prostate to treat the symptoms of BPH and were subsequently followed clinically and by laboratory testing. After intervals up to 6.5 years after injection, all available patients were followed urologically at specialized clinics with investigation of BPH symptoms and events of disease progression and safety assessments. All cases of clinically or biopsy detected prostate cancer were documented. The incidence of new biopsy or surgically proven prostate cancer after 12 months and overall was compared to the incidence of detected prostate cancer in large long-term clinical trials in the medical literature. Although a) the treatments were for BPH; b) the injections were directed at the central part of the prostate where cancer is less common; and c) the injections consisted of only a single or two injection(s) of SEQ ID NO. […]
In a series of clinical studies undertaken between 2009 and 2016, a total of 816 men with benign prostatic hyperplasia (BPH) received SEQ ID NO. […] All cases of clinically or biopsy detected prostate cancer were documented. The incidence of new biopsy or surgically proven prostate cancer after 12 months and overall was compared to the incidence of detected prostate cancer in the patients receiving the sterile saline solution (control). […]
In a series of clinical studies undertaken between 2009 and 2016 a total of 628 men with benign prostatic hyperplasia (BPH) received SEQ ID NO. […] All cases of clinically or biopsy detected prostate cancer were documented. The incidence of new biopsy or surgically proven prostate cancer of Gleason Grade>=7 was compared to the incidence of detected prostate cancer in large long-term clinical trials in the medical literature. […]

## IDQQVLSRIKLEIKRCL [SEQ ID NO: 66]
Compared to known expected incidence of 2-25%
  incidence of prostate cancer (after 12 months and overall): 0-1.3%
  Incidence of cancer (Gleason Grade >= 7): <0.3%
Listed as SEQ ID NO. 66
  Incidence of cancer (Gleason Grade >= 7): < 0.3%
